Legend:
[1] = target: T1, Mitogen-activated protein kinase kinase kinase 5 (Homo sapiens) (UniProt Q99683); test: MAP3K5 SGC Tm panel (DSF); details: for ΔTm: Compound concentration 10.0 uM
T1 sequence (whole entry): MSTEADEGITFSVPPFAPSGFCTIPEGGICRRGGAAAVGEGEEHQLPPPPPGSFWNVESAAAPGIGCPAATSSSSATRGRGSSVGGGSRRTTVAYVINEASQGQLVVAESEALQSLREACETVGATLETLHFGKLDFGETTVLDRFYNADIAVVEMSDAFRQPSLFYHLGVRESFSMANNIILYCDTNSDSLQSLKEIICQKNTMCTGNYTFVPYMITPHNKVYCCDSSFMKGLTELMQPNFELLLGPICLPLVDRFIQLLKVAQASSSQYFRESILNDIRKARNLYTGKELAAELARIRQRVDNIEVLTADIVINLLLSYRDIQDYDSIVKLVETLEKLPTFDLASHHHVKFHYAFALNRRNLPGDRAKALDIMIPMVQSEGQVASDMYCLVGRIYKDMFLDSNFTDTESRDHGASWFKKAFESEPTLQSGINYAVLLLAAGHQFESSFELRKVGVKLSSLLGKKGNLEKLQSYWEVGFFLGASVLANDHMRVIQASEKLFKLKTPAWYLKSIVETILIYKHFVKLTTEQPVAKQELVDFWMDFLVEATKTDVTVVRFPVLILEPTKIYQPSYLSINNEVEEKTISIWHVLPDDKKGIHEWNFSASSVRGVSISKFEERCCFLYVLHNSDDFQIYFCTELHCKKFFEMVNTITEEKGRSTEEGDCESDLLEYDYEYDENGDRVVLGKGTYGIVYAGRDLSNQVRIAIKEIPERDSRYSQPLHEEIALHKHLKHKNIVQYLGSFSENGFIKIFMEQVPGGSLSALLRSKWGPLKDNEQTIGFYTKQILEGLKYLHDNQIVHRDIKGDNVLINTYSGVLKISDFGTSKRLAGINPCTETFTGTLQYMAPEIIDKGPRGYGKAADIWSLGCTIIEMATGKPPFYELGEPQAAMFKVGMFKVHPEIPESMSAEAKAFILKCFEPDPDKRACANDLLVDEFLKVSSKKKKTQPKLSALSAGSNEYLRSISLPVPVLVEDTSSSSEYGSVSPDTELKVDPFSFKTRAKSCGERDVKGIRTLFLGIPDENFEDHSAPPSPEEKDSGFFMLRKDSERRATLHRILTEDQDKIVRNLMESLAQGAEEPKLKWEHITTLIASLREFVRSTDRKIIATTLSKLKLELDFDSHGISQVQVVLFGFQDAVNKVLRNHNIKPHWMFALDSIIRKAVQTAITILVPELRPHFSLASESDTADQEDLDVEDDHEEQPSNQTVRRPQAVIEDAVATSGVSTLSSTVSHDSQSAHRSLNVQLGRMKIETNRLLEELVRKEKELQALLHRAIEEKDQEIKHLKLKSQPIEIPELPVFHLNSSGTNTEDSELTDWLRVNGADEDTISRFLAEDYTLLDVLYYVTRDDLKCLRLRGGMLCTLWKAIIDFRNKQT

[2] = target: Ribosomal protein S6 kinase alpha-1 (Homo sapiens) (UniProt Q15418); test: RPS6KA1 SGC Tm panel (DSF); details: for ΔTm: Compound concentration 10.0 uM
Sequence of Ribosomal protein S6 kinase alpha-1 (Homo sapiens) (Q15418 whole entry): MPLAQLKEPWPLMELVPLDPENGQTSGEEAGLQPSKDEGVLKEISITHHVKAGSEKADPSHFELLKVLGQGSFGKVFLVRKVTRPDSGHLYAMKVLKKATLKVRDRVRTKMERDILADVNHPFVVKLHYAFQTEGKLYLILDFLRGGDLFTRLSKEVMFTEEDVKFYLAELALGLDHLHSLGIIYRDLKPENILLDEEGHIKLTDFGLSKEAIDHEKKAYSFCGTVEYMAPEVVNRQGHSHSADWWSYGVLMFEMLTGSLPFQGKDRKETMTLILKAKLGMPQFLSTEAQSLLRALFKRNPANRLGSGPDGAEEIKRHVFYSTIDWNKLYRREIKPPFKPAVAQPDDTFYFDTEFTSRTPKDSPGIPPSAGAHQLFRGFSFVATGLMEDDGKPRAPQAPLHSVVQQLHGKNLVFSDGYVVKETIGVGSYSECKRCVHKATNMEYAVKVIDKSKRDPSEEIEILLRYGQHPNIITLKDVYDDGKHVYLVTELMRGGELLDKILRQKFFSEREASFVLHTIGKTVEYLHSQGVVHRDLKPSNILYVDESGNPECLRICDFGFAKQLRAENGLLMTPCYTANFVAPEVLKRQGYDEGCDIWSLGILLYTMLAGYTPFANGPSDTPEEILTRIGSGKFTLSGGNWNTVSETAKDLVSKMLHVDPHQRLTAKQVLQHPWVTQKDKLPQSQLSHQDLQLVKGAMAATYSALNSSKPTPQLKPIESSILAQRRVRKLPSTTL

[3] = target: T2, Serine/threonine-protein kinase tousled-like 1 (Homo sapiens) (UniProt Q9UKI8); test: TLK1 SGC Tm panel (DSF); details: for ΔTm: Compound concentration 10.0 uM
T2 sequence (whole entry): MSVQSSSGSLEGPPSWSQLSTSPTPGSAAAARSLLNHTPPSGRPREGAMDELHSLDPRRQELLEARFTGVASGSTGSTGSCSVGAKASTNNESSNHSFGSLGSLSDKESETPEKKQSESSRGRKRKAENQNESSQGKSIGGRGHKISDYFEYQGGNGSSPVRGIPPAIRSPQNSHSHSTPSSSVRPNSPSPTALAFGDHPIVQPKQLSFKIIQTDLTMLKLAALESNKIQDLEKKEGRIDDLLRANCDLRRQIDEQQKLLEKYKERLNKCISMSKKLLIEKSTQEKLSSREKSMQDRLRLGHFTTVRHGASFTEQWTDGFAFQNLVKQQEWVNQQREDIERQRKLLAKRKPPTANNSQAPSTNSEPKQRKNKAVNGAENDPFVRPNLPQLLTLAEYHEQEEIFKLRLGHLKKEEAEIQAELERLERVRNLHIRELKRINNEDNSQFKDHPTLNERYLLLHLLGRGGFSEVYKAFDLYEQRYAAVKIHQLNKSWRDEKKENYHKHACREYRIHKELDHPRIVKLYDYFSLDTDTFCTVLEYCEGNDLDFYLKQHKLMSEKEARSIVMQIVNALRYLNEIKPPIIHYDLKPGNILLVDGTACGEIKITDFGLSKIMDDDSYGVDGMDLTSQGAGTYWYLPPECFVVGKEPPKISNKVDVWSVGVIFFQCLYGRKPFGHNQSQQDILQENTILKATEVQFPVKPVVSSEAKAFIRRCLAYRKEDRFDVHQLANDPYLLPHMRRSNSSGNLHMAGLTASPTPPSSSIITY

Rattus norvegicus = species on record: Rattus norvegicus; details: Compound concentration 10.0 uM
[4] = target: Sigma intracellular receptor 2 (Homo sapiens) (UniProt Q5BJF2); details: Compound concentration 10.0 uM
Sequence of Sigma intracellular receptor 2 (Homo sapiens) (Q5BJF2 whole entry): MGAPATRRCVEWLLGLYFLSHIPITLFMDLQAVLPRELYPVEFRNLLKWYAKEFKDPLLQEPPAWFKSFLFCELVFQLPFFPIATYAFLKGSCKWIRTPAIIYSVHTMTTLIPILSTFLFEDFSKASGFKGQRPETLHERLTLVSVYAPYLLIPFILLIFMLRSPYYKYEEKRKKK

delta Tm Staurosporine positive control [1] | ΔTm [1] | delta Tm Staurosporine positive control [2] | ΔTm [2] | delta Tm Staurosporine positive control [3] | ΔTm [3] | inhibition (Rattus norvegicus) [%] | inhibition [4] [%] | Structure (SMILES)
18.1 | 1.14 | 3.76 | 0.166 | 9.52 | 1.38 | 47.5 | 5.91 | COC[C@H](NC(=O)c1ccn(S(C)(=O)=O)c1)C(=O)Nc1nc(-c2cccc(-c3ccn(C)n3)c2)cs1
18.1 | 1.17 | 3.76 | 0.223 | 9.52 | 1.6 | 64.6 | 2.43 | C[C@H](NC(=O)c1cn(C2(C#N)CC2)cn1)C(=O)Nc1nc(-c2cccc(-c3ccn(C)n3)c2)cs1

— ChEMBL document CHEMBL5303766, “Data for DCP probe FHT-2344” (2022)
